The target of one assay is Cytochrome P450 2C19 (Homo sapiens, UniProt P33261). Briefly: Cytochrome panel assay with activity outcomes. Panel member name: p450-cyp2c19 Compounds with AC50 equal or less than 10 uM are considered active. It is filed as functional. To be noted: read-out: AC50.
The next assay deals with Cytochrome P450 3A4 (Homo sapiens, UniProt P08684).
For assay [1], the system named is HEK293. Briefly: EBV LMP1 TES2 canonical NF-kB signalling blockers – cell-based, HEK293, luciferase, cherry-pick, dose response (AID 588343). To be noted: Homo sapiens. It is filed as functional.
Another assay deals with Cytochrome P450 2C9 (Homo sapiens, UniProt P11712).
Assay [2] has as its system HEK293. Briefly: cells. It is filed as functional, cell-based. To be noted: Homo sapiens.
The subject of another assay is INS1. Briefly: INS-1E survival protection against cytokine death – cell-based, luminescence, retest, dose response (AID 449756).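 Further: cell death triggered by IL-1 beta plus TNF-alpha plus IFN-gamma mixture; protective hits raise ATP signal compared with cytokine alone wells.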 It is filed as functional. The note with it: Rattus norvegicus.
The next assay has as its target T1, Streptokinase A (Streptococcus pyogenes serotype M1, UniProt P10520).
T1 sequence (P10520 whole entry): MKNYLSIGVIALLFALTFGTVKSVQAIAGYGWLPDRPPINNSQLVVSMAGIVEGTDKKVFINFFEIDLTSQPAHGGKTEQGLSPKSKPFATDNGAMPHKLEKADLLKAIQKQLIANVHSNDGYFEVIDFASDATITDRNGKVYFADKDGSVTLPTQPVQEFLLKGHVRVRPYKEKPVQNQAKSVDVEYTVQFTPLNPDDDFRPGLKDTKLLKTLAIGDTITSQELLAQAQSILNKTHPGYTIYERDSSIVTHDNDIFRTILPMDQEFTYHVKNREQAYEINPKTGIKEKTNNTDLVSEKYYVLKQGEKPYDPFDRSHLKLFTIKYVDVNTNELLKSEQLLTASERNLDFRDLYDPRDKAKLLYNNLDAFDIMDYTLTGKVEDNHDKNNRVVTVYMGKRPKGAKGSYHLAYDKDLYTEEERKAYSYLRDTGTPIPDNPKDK
Briefly: viability-normalized secreted streptokinase activity reduction – plasminogen activation absorbance, OD405, dose response (AID 1914).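 Further: secreted streptokinase activity via plasminogen activation per viability signal from cell pellet.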 It is filed as functional, Streptococcus pyogenes M1 GAS.

For a further assay, the system named is Streptococcus. Briefly: GAS UMAA2166 growth inhibition – luminescence, BacTiterGlo, counter-screen for streptokinase expression inhibitor project, dose response (AID 1915).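 Further: potency for reduction of bacterial viability or growth.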 It is filed as functional, organism-based. (In general: A counterscreen serves to expose hits that act by an unwanted route or on another target.)
The subject of assay [3] is HEK293. Briefly: inhibition of NOD1-driven NF-kB reporter – cell-based, luminescence, uHTS, primary screen (AID 1578). It is filed as functional. The note with it: Homo sapiens.
The test system of assay [4] is Streptococcus sp. 'group A'. Briefly: Streptococcus pyogenes SK(-)GAS viability under kanamycin – luminescence, BacTiterGlo, confirmation, counter-screen for streptokinase expression inhibitor project, dose response (AID 1900). It is filed as functional, organism-based.
For assay [5], the system named is HEK293. Briefly: NOD2 signaling inhibitors in MDP-stimulated cells, cell-based, uHTS, luminescence (AID 2001). It is filed as functional. The note with it: Homo sapiens.
For assay [6], the system named is HEK293. Briefly: cells. It is filed as functional, cell-based. The note with it: Homo sapiens. This is another data set of the same source.
For assay [7], the target named is T2, High affinity choline transporter 1 (Homo sapiens, UniProt Q9GZV3).
T2 sequence (Q9GZV3 whole entry): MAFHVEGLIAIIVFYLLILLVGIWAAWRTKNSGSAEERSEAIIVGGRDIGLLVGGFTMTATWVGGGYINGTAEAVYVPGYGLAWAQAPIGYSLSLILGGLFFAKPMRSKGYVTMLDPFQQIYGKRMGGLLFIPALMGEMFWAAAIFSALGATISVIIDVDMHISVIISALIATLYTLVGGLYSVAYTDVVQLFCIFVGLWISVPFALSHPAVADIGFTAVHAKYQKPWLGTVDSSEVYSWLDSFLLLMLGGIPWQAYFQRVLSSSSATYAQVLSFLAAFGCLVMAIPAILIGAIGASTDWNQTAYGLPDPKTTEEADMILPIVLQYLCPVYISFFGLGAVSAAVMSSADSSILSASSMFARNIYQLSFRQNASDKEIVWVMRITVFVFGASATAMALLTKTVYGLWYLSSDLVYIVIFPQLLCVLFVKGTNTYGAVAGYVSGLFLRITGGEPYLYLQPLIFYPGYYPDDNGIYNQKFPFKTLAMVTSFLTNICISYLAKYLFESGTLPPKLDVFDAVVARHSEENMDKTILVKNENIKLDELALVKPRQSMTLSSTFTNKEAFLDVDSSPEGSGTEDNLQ
Briefly: human choline transporter blockers, potency – cell-based, 5-point CRC, membrane potential dye, dose response (AID 504840). It is filed as functional.

In another assay the target is T3, Caspase-3 (Homo sapiens, UniProt P42574).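 Further: Dose-response selectivity test against caspase-3 for candidate inhibitors of sentrin-specific proteases (SENPs).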
T3 sequence (P42574 whole entry): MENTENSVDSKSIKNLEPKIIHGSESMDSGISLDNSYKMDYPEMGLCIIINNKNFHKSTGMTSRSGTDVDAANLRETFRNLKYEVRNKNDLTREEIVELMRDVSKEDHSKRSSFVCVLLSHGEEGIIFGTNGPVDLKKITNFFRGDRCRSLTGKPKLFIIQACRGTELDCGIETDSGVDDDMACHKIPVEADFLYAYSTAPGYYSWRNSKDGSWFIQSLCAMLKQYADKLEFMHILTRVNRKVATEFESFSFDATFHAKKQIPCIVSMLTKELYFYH
It is filed as functional.

For assay [8], the target named is T4, Sentrin-specific protease 7 (Homo sapiens, UniProt Q9BQF6).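 Further: Luminescence-based dose-response confirmation of ultra-high-throughput screening hits, measuring inhibition of SENP7.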
T4 sequence (Q9BQF6 whole entry): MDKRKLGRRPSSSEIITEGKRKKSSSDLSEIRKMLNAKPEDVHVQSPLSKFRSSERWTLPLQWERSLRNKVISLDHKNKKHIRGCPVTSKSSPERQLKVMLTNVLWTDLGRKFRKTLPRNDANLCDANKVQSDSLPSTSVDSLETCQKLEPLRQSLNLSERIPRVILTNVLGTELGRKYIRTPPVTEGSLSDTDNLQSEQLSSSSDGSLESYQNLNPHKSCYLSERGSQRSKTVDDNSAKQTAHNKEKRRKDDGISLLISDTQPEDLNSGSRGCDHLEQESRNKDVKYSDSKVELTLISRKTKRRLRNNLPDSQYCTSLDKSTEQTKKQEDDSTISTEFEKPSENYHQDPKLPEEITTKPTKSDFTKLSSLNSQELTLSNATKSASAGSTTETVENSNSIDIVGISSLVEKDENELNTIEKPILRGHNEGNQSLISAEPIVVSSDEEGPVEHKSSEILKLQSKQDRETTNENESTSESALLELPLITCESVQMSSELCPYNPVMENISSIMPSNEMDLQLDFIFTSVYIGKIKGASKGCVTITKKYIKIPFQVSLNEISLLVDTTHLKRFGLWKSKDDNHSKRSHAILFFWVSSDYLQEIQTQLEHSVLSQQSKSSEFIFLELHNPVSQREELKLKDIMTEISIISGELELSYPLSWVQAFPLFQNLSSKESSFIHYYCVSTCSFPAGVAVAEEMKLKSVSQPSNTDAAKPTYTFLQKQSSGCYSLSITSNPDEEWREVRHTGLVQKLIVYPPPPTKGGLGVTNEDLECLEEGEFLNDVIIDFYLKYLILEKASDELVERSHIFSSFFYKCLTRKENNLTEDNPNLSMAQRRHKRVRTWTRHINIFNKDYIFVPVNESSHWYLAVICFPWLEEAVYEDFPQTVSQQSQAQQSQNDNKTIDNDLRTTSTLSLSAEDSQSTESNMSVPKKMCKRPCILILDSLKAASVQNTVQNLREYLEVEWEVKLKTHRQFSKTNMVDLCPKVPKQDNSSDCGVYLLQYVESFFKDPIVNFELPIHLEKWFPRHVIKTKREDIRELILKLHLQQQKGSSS
It is filed as functional.

Assay [9] addresses T5, Sentrin-specific protease 6 (Homo sapiens, UniProt Q9GZR1).
T5 sequence (Q9GZR1 whole entry): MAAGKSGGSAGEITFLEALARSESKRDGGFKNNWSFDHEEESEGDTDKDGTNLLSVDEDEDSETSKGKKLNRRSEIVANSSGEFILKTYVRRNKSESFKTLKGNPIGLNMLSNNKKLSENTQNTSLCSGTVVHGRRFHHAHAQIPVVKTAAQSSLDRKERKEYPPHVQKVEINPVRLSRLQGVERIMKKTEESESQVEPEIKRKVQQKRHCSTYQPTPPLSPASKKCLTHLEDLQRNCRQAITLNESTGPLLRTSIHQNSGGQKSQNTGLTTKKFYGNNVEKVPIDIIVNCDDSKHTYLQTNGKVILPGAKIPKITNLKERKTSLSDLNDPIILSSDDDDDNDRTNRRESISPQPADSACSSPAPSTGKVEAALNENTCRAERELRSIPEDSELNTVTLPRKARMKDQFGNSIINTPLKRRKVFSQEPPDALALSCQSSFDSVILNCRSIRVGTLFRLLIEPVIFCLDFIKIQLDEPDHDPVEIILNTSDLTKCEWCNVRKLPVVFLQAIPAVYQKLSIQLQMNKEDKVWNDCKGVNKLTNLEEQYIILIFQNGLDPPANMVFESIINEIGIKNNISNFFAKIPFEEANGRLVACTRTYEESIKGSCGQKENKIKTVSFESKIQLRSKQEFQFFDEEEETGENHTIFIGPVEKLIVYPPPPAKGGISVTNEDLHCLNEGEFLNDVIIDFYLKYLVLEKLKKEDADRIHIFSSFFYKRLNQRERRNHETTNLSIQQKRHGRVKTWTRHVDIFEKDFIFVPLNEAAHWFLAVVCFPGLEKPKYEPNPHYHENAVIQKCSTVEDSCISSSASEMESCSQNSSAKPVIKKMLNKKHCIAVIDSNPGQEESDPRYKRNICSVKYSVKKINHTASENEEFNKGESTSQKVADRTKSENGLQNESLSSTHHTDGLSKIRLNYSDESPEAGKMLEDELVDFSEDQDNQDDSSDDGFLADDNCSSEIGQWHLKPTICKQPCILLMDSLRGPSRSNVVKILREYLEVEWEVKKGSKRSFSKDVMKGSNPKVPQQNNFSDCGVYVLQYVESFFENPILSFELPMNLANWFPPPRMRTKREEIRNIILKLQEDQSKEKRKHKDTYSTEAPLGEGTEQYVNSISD
It is filed as functional.

Assay [10] has as its target T6, Sentrin-specific protease 8 (Homo sapiens, UniProt Q96LD8).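 Further: luminescence read-out of SENP8 inhibition, dose-response confirmation following an ultra-high-throughput screen.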
T6 sequence (Q96LD8 whole entry): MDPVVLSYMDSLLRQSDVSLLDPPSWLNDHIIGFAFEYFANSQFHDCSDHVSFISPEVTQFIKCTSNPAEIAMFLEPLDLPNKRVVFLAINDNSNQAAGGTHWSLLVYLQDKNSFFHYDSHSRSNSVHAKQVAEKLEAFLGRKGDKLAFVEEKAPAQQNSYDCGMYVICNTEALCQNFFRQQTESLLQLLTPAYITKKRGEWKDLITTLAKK
It is filed as functional.

For the next assay, the target named is Nonstructural protein 1 (Influenza A virus, UniProt Q194T2). It is filed as functional, Influenza A virus (A/California/07/2009(H1N1)).
Assay [11] is described as follows: microbe, parasite or virus in culture. It is filed as functional. To be noted: Mycobacterium tuberculosis.
A further assay has as its system Vero. Briefly: cells. It is filed as functional. To be noted: Chlorocebus sabaeus.
The nature of assay [12]: Luminescence Cell-Based Dose Retest to Confirm Inhibitors of Cancer Stem Cells. [Related pubchem assays (depositor defined):AID2717, AID2721]. It is filed as functional. The note with it: Homo sapiens.

The source made the active and inactive calls.

Cytochrome P450 3A4, sequence (P08684 whole entry): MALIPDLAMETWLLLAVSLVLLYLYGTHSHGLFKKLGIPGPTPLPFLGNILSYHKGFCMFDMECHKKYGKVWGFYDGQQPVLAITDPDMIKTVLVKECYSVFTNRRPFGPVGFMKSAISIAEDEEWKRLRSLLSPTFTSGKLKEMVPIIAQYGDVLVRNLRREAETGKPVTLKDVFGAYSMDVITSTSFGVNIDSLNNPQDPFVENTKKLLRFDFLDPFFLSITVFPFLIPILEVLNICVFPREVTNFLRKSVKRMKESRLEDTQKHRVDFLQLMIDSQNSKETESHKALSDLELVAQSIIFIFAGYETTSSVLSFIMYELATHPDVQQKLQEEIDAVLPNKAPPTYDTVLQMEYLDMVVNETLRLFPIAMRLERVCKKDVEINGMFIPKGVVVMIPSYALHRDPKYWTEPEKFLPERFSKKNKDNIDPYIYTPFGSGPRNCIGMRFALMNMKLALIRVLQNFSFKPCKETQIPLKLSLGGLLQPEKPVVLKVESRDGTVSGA
Cytochrome P450 2C19, sequence (P33261 whole entry): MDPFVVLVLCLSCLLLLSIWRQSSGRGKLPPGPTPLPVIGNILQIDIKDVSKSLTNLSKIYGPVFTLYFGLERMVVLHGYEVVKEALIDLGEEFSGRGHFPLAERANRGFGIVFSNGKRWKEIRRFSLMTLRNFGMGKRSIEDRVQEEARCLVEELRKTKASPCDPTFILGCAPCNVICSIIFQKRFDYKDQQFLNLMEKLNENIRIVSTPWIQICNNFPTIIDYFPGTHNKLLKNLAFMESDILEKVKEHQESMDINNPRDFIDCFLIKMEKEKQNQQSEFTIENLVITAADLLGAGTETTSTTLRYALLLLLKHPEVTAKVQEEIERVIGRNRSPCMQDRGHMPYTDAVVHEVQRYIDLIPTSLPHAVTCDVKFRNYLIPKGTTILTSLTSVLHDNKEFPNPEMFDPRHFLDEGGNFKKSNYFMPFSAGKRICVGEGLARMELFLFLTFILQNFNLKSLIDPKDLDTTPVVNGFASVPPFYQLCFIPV
Nonstructural protein 1, sequence (Q194T2 whole entry): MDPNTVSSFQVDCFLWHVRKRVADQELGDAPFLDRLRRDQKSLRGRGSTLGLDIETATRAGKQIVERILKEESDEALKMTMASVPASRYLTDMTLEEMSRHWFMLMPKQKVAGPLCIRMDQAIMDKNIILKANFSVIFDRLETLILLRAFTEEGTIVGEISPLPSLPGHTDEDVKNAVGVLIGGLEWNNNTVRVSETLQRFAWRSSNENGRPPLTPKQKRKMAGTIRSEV
Cytochrome P450 2C9, sequence (P11712 whole entry): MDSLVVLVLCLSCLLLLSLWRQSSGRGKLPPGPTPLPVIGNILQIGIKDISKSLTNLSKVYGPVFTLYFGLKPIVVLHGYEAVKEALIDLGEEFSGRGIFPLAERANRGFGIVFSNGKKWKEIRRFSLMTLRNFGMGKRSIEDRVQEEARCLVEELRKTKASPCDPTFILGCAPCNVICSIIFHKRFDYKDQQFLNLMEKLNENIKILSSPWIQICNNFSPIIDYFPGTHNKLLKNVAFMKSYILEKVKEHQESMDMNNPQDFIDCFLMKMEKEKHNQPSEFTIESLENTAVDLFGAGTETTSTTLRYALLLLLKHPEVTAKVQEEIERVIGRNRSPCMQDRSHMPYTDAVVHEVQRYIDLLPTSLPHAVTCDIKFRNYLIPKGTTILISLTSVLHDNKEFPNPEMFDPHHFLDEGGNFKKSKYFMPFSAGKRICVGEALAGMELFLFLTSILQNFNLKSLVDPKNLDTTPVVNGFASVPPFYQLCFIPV

The AC50 is the concentration at which the activity in the assay is half-maximal. On to `CCc1ccc(C(=O)COC(=O)c2cccc(N3C(=O)c4c(C)nc5ccccc5c4C3=O)c2)cc1`, for which the AC50 on Cytochrome P450 2C19 was 7.08 µM (inconclusive); on Cytochrome P450 3A4, 22.4 µM (inconclusive); in the assay on HEK293 [1] it was 16.7 µM (active); at Cytochrome P450 2C9, 3.16 µM (inconclusive).

As usually defined, the IC50 is the concentration that gives 50% inhibition. In general, EC50 refers to the concentration needed to bring the measured effect to its halfway point. Regarding `O=C(Nc1ccc([N+](=O)[O-])cc1)Nc1ccc(Cl)cc1F`, the IC50 was > 20 µM (inactive) in the assay on HEK293 [2], 3.26 µM (inactive) in the assay on HEK293 [5] and 3.12 µM (active) in the assay with HEK293 [6]. The AC50 with INS1 is 3.73 µM (active). Besides, the EC50 at Streptokinase A is > 150 µM (not active); in the assay on Streptococcus, > 150 µM (not active); in the assay on HEK293 [3] it was 18.7 µM (active); in assay [4], > 150 µM (not active).

With `Cc1ccc(C(=O)CSc2nnc(-c3ccco3)n2C)cc1`, the IC50 in assay [7] was 9.62 µM (active).

With `COc1ccc(NC(=O)c2ccc(OCC3CCCO3)cc2)cc1Cl` (centres undefined), the IC50 at Caspase-3 is 15.6 µM (active); in assay [8], 5.56 µM (active); in assay [9], > 100 µM (inactive); in assay [10] it was > 100 µM (inactive).

As for `O=C(Nc1nc2ccc(F)cc2s1)C1=COCCO1`, the concentration at half-maximal activity (AC50) with HEK293 [1] is 2.38 µM (active).

Regarding `N#CC(C#N)=c1ccc2c(c1)N1C3=C(CCCC3)CC3CCCCC31N=2` (centres undefined), the IC50 is 11 µM (active) in assay [7] and 11.2 µM (active) at Nonstructural protein 1. In assay [11], the CC50 is 29.5 µM (active).

As to `CC(=O)Nc1ccc(C=NNc2nnc(NN=Cc3ccc(NC(C)=O)cc3)c3ccccc23)cc1`, in the assay on HEK293 [1], the AC50 is 0.932 µM (active).

For the molecule `CCOc1ccc(/N=C/c2c(O)oc3ccccc3c2=O)cc1`, the IC50 was 32.8 µM (active) at Caspase-3, 6.32 µM (active) in assay [8], 26.2 µM (active) in assay [9] and > 100 µM (inactive) in assay [10].

For `NC(=O)c1ccccc1N/C=C/C(=O)c1cccs1`, the AC50 with HEK293 [1] was 22.5 µM (active).

For `COc1ccc(N2Cc3ccccc3C2=O)cc1`, in the assay with HEK293 [1], the AC50 was 12.5 µM (active).

As for `O=C(Nc1ccc(S(=O)(=O)N2CCOCC2)cc1)c1cc(-c2cc(Cl)ccc2O)n[nH]1`, the concentration for half-maximal inhibition (IC50) with HEK293 [2] was 7.45 µM (active); in the assay with HEK293 [5], 6.8 µM (active); in the assay on HEK293 [6], 6.05 µM (active). The CC50 in the assay with Vero was 10.9 µM (active). Further, the EC50 in the assay with HEK293 [3] is > 20 µM (inactive). Further, the AC50 in [12] was 0.962 µM (active).

The values above are taken from ChEMBL document CHEMBL1201862, “PubChem BioAssay data set” (2004).
